Measured values as given in ChEMBL document CHEMBL3991601, “The target landscape of clinical kinase drugs” (Science, 2017).
Active and inactive are the calls of the source.

How the values were obtained:
Ephrin type-B receptor 4 = biological target: T1, Ephrin type-B receptor 4 (Homo sapiens, UniProt P54760)
T1 sequence (P54760 whole entry): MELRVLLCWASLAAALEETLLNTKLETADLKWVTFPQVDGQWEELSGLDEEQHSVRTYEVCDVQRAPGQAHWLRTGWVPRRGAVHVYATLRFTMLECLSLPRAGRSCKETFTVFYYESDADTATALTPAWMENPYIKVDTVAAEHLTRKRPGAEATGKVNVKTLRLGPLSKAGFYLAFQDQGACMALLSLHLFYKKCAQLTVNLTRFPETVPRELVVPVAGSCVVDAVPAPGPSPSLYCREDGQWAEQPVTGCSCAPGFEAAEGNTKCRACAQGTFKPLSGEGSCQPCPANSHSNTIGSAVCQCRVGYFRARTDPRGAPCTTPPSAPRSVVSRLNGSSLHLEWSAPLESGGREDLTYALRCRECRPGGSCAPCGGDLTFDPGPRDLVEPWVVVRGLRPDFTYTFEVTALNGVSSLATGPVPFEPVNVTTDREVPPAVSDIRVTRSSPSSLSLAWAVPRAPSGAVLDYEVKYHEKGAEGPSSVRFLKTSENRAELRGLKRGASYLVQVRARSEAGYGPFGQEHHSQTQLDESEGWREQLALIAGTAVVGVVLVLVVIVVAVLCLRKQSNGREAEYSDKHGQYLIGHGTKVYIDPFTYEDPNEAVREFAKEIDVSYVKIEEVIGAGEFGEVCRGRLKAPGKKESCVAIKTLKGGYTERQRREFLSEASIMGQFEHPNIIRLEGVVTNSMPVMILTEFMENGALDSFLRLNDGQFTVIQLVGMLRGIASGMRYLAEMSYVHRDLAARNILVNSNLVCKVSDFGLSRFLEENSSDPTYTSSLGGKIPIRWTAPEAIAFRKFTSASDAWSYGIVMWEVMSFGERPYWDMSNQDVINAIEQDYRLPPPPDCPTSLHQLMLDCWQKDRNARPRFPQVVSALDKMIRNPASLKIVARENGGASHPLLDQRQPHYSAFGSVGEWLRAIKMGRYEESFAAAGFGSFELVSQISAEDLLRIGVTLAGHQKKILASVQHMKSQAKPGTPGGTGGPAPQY

[1] = biological target: T2, Dual specificity mitogen-activated protein kinase kinase 6 (Homo sapiens, UniProt P52564)
T2 sequence (P52564 whole entry): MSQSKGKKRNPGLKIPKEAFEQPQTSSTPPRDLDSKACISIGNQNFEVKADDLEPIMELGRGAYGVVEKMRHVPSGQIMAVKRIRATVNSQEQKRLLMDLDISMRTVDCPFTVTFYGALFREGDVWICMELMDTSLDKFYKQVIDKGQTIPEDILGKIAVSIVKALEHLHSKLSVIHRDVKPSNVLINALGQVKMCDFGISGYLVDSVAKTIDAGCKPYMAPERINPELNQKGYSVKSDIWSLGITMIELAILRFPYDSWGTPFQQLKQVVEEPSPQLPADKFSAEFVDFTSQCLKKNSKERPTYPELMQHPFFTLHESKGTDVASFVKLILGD

Myosin-14 = Myosin-14 (Homo sapiens, UniProt Q7Z406)
Chain of Myosin-14 (Q7Z406 whole entry): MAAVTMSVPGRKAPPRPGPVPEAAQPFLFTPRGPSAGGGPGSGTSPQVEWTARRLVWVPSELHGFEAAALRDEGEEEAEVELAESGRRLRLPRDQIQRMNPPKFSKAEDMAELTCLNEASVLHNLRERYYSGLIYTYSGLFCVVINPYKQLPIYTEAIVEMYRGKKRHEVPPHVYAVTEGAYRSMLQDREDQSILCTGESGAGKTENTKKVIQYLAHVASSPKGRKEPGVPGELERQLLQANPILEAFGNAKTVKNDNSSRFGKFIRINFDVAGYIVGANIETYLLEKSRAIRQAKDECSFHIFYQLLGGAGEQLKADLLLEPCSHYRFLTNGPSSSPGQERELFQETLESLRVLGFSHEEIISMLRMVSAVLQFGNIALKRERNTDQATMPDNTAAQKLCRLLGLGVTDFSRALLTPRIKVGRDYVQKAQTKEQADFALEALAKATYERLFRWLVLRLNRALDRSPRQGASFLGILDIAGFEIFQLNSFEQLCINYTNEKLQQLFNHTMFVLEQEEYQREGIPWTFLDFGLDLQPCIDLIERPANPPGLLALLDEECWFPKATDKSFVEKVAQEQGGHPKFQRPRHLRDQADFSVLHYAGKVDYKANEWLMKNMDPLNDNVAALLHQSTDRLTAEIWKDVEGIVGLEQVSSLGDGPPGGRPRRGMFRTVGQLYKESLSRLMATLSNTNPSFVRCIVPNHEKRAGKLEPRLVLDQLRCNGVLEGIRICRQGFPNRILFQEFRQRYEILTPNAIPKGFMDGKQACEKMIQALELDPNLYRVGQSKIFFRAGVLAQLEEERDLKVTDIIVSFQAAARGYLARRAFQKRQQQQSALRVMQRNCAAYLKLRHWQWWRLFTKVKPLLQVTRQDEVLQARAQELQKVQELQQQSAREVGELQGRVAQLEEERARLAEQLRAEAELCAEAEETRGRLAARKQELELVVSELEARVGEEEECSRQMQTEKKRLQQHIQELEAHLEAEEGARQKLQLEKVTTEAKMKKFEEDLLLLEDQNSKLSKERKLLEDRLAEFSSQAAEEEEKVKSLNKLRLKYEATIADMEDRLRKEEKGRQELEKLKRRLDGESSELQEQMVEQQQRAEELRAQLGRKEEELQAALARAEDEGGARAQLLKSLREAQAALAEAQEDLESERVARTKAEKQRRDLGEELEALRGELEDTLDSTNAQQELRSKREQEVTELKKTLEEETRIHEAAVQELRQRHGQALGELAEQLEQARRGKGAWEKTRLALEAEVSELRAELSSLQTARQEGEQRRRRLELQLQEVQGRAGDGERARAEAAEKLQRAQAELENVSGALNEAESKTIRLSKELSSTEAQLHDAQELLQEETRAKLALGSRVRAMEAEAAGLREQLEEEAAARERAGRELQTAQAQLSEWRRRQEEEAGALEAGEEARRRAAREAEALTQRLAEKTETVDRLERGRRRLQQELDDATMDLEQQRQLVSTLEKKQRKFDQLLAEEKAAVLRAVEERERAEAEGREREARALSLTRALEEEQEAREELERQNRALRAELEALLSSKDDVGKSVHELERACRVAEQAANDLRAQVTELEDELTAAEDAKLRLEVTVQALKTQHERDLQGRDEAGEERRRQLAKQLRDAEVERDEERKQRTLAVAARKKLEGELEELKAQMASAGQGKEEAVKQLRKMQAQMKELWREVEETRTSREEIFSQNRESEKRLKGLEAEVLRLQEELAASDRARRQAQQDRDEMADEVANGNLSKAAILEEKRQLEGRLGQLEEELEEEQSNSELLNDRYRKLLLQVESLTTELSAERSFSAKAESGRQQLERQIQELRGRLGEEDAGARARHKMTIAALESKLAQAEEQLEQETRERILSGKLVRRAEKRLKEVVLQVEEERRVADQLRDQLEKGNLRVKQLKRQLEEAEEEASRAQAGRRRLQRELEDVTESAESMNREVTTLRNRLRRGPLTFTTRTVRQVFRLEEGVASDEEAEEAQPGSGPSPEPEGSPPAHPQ

[2] = biological target: Ribosomal protein S6 kinase alpha-5 (Homo sapiens, UniProt O75582)
Chain of Ribosomal protein S6 kinase alpha-5 (O75582 whole entry): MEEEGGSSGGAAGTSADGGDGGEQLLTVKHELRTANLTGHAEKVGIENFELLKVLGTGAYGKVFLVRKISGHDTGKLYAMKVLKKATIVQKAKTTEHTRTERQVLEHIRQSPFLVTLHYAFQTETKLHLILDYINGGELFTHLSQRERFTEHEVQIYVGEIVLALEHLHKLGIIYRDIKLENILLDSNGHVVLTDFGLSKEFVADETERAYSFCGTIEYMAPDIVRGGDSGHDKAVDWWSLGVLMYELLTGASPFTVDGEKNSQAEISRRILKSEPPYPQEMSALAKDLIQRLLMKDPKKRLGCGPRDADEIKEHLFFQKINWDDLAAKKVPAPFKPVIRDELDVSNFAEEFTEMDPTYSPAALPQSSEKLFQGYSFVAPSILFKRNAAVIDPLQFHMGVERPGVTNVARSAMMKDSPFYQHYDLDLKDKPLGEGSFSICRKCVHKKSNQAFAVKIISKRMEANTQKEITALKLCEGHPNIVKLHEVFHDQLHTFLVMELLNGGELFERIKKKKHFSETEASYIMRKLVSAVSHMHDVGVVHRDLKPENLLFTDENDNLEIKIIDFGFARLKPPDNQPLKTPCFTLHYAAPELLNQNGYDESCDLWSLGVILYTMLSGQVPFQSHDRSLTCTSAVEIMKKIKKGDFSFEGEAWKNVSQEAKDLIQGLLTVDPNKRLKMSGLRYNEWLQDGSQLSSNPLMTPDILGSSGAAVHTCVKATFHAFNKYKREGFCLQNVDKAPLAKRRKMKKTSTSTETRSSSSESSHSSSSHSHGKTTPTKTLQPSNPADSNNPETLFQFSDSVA

[3] = biological target: T3, Dual specificity mitogen-activated protein kinase kinase 3 (Homo sapiens, UniProt P46734)
T3 sequence (P46734 whole entry): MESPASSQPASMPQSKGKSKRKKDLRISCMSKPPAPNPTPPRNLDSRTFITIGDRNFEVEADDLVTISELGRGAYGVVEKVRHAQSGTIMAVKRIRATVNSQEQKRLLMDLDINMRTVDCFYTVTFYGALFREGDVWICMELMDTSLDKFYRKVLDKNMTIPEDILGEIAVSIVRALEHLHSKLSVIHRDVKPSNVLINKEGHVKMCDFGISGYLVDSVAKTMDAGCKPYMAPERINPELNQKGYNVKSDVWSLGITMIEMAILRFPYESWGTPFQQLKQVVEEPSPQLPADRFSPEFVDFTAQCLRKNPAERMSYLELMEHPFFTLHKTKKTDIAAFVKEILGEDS

[4] = biological target: Mitogen-activated protein kinase 7 (Homo sapiens, UniProt Q13164)
Chain of Mitogen-activated protein kinase 7 (Q13164 whole entry): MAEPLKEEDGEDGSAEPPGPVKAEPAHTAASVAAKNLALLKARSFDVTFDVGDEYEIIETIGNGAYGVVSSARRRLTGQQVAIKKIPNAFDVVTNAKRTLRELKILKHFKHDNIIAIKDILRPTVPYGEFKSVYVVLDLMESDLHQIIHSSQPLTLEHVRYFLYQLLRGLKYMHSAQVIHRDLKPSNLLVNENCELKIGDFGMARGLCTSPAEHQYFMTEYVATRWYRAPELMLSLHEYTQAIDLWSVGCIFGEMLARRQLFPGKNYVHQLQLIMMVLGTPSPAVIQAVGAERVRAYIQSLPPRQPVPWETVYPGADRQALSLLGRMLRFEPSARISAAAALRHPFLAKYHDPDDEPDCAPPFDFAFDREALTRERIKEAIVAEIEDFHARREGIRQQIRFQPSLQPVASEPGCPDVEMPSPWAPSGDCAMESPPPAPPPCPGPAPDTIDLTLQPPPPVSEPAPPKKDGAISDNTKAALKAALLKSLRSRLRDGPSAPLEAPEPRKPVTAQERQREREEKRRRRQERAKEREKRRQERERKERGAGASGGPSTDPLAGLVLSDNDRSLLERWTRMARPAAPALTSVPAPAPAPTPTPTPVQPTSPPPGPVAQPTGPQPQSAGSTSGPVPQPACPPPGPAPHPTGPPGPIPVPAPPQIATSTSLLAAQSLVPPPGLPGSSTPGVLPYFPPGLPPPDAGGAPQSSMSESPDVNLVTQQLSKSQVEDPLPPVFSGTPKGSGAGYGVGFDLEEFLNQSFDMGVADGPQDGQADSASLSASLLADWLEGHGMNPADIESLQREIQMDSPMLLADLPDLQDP

[5] = biological target: T4, RNA cytidine acetyltransferase (Homo sapiens, UniProt Q9H0A0)
T4 sequence (Q9H0A0 whole entry): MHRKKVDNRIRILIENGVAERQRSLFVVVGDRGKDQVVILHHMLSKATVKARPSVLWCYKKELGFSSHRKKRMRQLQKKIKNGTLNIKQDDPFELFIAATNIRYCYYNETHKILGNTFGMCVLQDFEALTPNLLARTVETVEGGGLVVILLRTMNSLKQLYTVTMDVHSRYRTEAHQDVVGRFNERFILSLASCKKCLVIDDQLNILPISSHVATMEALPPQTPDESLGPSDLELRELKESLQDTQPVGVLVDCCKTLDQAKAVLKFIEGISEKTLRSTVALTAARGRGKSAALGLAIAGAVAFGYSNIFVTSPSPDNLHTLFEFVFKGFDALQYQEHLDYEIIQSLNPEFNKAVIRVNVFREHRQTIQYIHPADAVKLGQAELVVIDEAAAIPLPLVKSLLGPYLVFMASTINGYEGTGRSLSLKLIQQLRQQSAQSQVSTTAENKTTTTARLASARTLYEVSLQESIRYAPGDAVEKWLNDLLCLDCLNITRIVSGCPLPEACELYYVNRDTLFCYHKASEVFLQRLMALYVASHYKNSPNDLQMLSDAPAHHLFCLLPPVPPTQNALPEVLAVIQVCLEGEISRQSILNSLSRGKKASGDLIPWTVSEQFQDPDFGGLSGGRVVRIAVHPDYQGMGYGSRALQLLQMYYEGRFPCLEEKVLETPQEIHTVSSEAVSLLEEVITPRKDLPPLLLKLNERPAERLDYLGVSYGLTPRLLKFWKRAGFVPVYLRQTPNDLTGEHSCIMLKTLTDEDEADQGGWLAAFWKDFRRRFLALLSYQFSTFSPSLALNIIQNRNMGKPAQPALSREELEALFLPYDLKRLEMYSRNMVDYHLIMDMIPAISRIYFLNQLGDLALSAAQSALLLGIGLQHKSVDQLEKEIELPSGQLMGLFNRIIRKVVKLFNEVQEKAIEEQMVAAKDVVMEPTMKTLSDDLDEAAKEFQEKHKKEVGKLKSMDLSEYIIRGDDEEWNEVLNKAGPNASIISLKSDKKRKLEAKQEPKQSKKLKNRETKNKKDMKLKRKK
Further: in the data inactive means no Kd found up to 30 µM.

Structure (SMILES)	Kd (Ephrin type-B receptor 4)	Kd [1]	Kd (Myosin-14)	Kd [2]	Kd [3]	Kd [4]	Kd [5]
O=C(Nc1cc(C(F)(F)F)cc(C(F)(F)F)c1)c1cc(Cl)ccc1O [IMD-0354]	> 30 µM (inactive)	> 30 µM (inactive)	> 30 µM (inactive)	> 30 µM (inactive)	> 30 µM (inactive)	> 30 µM (inactive)	> 30 µM (inactive)
CNC(=O)c1cccc2cc(Oc3ccnc4cc(OCC5(N)CC5)c(OC)cc34)ccc12 [LUCITANIB]	> 30 µM (inactive)	> 30 µM (inactive)	> 30 µM (inactive)	> 30 µM (inactive)	> 30 µM (inactive)	> 30 µM (inactive)	> 30 µM (inactive)
CNC(=O)c1nn(C)c2c1C(C)(C)Cc1cnc(Nc3ccc(N4CCN(C)CC4)cc3)nc1-2 [MILCICLIB]	1.07 µM (active)	> 30 µM (inactive)	> 30 µM (inactive)	> 30 µM (inactive)	> 30 µM (inactive)	> 30 µM (inactive)	> 30 µM (inactive)
NC1(c2ccc(-c3nc4ccn5c(=O)[nH]nc5c4cc3-c3ccccc3)cc2)CCC1 [MK-2206]	> 30 µM (inactive)	> 30 µM (inactive)	> 30 µM (inactive)	> 30 µM (inactive)	> 30 µM (inactive)	> 30 µM (inactive)	> 30 µM (inactive)
CN(C[C@@H]1COCCO1)S(=O)(=O)Nc1ccc2ccc3ncc(-c4cnn(C)c4)cc3c(=O)c2c1 [MK-2461]	> 30 µM (inactive)	> 30 µM (inactive)	> 30 µM (inactive)	> 30 µM (inactive)	> 30 µM (inactive)	> 30 µM (inactive)	> 30 µM (inactive)
Cn1cc(-c2cnc3ccc4ccc(CS(=O)(=O)NCc5ccccn5)cc4c(=O)c3c2)cn1 [MK-8033]	> 30 µM (inactive)	> 30 µM (inactive)	> 30 µM (inactive)	> 30 µM (inactive)	> 30 µM (inactive)	> 30 µM (inactive)	> 30 µM (inactive)
FC(F)(F)c1ccc(/C=C/c2nc(COc3ccc(CCCCn4ccnn4)cc3)co2)cc1 [MUBRITINIB]	> 30 µM (inactive)	> 30 µM (inactive)	> 30 µM (inactive)	> 30 µM (inactive)	> 30 µM (inactive)	> 30 µM (inactive)	> 30 µM (inactive)
COc1ncc(-c2ccc3nccc(-c4ccnnc4)c3c2)cc1NS(=O)(=O)c1ccc(F)cc1F [OMIPALISIB]	> 30 µM (inactive)	> 30 µM (inactive)	> 30 µM (inactive)	> 30 µM (inactive)	> 30 µM (inactive)	> 30 µM (inactive)	> 30 µM (inactive)
CCOc1cc2ncc(C#N)c(Nc3ccc(F)c(Cl)c3)c2cc1NC(=O)/C=C/CN(C)C [PELITINIB]	> 30 µM (inactive)	> 30 µM (inactive)	> 30 µM (inactive)	> 30 µM (inactive)	> 30 µM (inactive)	> 30 µM (inactive)	> 30 µM (inactive)
CCCCCCCCCCCCCCCCCCOP(=O)([O-])OC1CC[N+](C)(C)CC1 [PERIFOSINE]	> 30 µM (inactive)	> 30 µM (inactive)	> 30 µM (inactive)	> 30 µM (inactive)	> 30 µM (inactive)	> 30 µM (inactive)	> 30 µM (inactive)
Cc1nc(Nc2n[nH]c3c2CN(C(=O)N[C@H](CN(C)C)c2ccccc2)C3(C)C)c2sccc2n1 [PF-03758309]	> 30 µM (inactive)	> 30 µM (inactive)	> 30 µM (inactive)	30 µM (active)	> 30 µM (inactive)	3.89 µM (active)	> 30 µM (inactive)
Cc1cnc(NC(=O)Nc2cc(Br)c(C)cc2OC[C@@H]2CNCCO2)cn1 [RABUSERTIB]	> 30 µM (inactive)	> 30 µM (inactive)	> 30 µM (inactive)	> 30 µM (inactive)	> 30 µM (inactive)	> 30 µM (inactive)	> 30 µM (inactive)
CO[C@H]1C[C@@H]2CC[C@@H](C)[C@@](O)(O2)C(=O)C(=O)N2CCCC[C@H]2C(=O)O[C@H]([C@H](C)C[C@@H]2CC[C@@H](OP(C)(C)=O)[C@H](OC)C2)CC(=O)[C@H](C)/C=C(\C)[C@@H](O)[C@@H](OC)C(=O)[C@H](C)C[C@H](C)/C=C/C=C/C=C/1C [RIDAFOROLIMUS]	> 30 µM (inactive)	> 30 µM (inactive)	> 30 µM (inactive)	> 30 µM (inactive)	> 30 µM (inactive)	> 30 µM (inactive)	> 30 µM (inactive)
N#CC1(c2ccc(NC(=O)c3cccnc3NCc3ccncc3)cc2)CCCC1 [RIVOCERANIB]	> 30 µM (inactive)	> 30 µM (inactive)	> 30 µM (inactive)	> 30 µM (inactive)	> 30 µM (inactive)	> 30 µM (inactive)	> 30 µM (inactive)
O=c1[nH]ccc2cc(OC3CCNCC3)ccc12 [SAR-407899 FREE BASE]	> 30 µM (inactive)	> 30 µM (inactive)	> 30 µM (inactive)	> 30 µM (inactive)	> 30 µM (inactive)	> 30 µM (inactive)	> 30 µM (inactive)
CN1CCN(CCOc2cc(OC3CCOCC3)c3c(Nc4c(Cl)ccc5c4OCO5)ncnc3c2)CC1 [SARACATINIB]	3.88 µM (active)	> 30 µM (inactive)	> 30 µM (inactive)	> 30 µM (inactive)	> 30 µM (inactive)	> 30 µM (inactive)	> 30 µM (inactive)
Cn1cc(-c2cnn3c(N)c(Br)c([C@@H]4CCCNC4)nc23)cn1 [SCH-900776]	> 30 µM (inactive)	> 30 µM (inactive)	> 30 µM (inactive)	> 30 µM (inactive)	> 30 µM (inactive)	> 30 µM (inactive)	> 30 µM (inactive)
